According to patent publication US20260262643A1, “HERBICIDAL BENZOXAZINES” (FMC CORPORATION, priority 2022, published 2026):

What was measured:
[1] = system: green foxtail; assay: Test C postemergence; assay type: in vivo, Setaria viridis; settings: 10 days
In short: (§1)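 Greenhouse herbicide screen, 10-day duration. Test chemicals in solvent/surfactant blend were sprayed onto soil at sowing (pre) or onto 2–10 cm seedlings at one to two leaves (post); injury scored visually against controls, 0 no effect to 100 complete control.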

[2] = system: kochia; assay: Test C preemergence; assay type: in vivo, Bassia scoparia; settings: for Kochia plant response rating: preemergence; for Plant response rating, Kochia: Preemergence
In short: as §1

[3] = system: blackgrass; assay: Test C postemergence; assay type: in vivo, Alopecurus myosuroides; settings: 10 days
In short: as §1

[4] = system: corn; assay: Test C preemergence; assay type: in vivo, Zea mays; settings: for Corn plant response rating: preemergence; for Plant response rating, Corn: Preemergence
In short: as §1

[5] = system: barnyardgrass; assay: Test C preemergence; assay type: in vivo, Echinochloa crusgalli; settings: for Barnyardgrass plant response rating: preemergence; for Plant response rating, Barnyardgrass: Preemergence
In short: as §1

[6] = system: kochia; assay: Test C postemergence; assay type: in vivo, Bassia scoparia; settings: 10 days
In short: as §1

[7] = system: ragweed; assay: Test C postemergence; assay type: in vivo, Ambrosia artemisiifolia; settings: 10 days
In short: as §1

[8] = system: wheat; assay: Test C preemergence; assay type: in vivo, Triticum aestivum; settings: for Wheat plant response rating: preemergence; for Plant response rating, Wheat: Preemergence
In short: as §1

[9] = system: barnyardgrass; assay: Test D flooded paddy test; assay type: in vivo, Echinochloa crus-galli; settings: 250 g ai/ha, applied to paddy water, visual rating after 13 to 14 days, scale 0 to 100 (0 no effect, 100 complete control)
In short: (§2)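 Post-flood water application at the 2-leaf stage; 3 cm flood depth kept constant; visual control rating 0–100 after 13–14 days greenhouse growth.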

[10] = system: barnyardgrass; assay: Test C postemergence; assay type: in vivo, Echinochloa crusgalli; settings: 10 days
In short: as §1

[11] = system: galium; assay: Test C postemergence; assay type: in vivo, Galium aparine; settings: 10 days
In short: as §1

[12] = system: green foxtail; assay: Test C preemergence; assay type: in vivo, Setaria viridis; settings: for Foxtail, Green plant response rating: preemergence; for Plant response rating, Foxtail, Green: Preemergence
In short: as §1

[13] = system: pigweed, palmer; assay: Test C postemergence; assay type: in vivo, Amaranthus palmeri; settings: 10 days
In short: as §1

[14] = system: ducksalad; assay: Test D flooded paddy test; assay type: in vivo, Heteranthera limosa; settings: 250 g ai/ha, applied to paddy water, visual rating after 13 to 14 days, scale 0 to 100 (0 no effect, 100 complete control)
In short: as §2

[15] = system: blackgrass; assay: Test C preemergence; assay type: in vivo, Alopecurus myosuroides; settings: for Blackgrass plant response rating: preemergence; for Plant response rating, Blackgrass: Preemergence
In short: as §1

[16] = system: sedge, umbrella; assay: Test D flooded paddy test; assay type: in vivo, Cyperus difformis; settings: 250 g ai/ha, applied to paddy water, visual rating after 13 to 14 days, scale 0 to 100 (0 no effect, 100 complete control)
In short: as §2

[17] = system: horseweed; assay: Test C postemergence; assay type: in vivo, Erigeron canadensis; settings: 10 days
In short: as §1

[18] = system: ragweed; assay: Test C preemergence; assay type: in vivo, Ambrosia artemisiifolia; settings: for Ragweed plant response rating: preemergence; for Plant response rating, Ragweed: Preemergence
In short: as §1

[19] = system: corn; assay: Test C postemergence; assay type: in vivo, Zea mays; settings: 10 days
In short: as §1

[20] = system: oat, wild; assay: Test C postemergence; assay type: in vivo, Avena fatua; settings: 10 days
In short: as §1

[21] = system: pigweed, palmer; assay: Test C preemergence; assay type: in vivo, Amaranthus palmeri; settings: for Pigweed, Palmer plant response rating: preemergence; for Plant response rating, Pigweed, Palmer: Preemergence
In short: as §1

[22] = system: soybean; assay: Test C preemergence; assay type: in vivo, Glycine max; settings: for Soybean plant response rating: preemergence; for Plant response rating, Soybean: Preemergence
In short: as §1

[23] = system: ryegrass, Italian; assay: Test C preemergence; assay type: in vivo, Lolium multiflorum; settings: for Ryegrass, Italian plant response rating: preemergence; for Plant response rating, Ryegrass, Italian: Preemergence
In short: as §1

[24] = system: oat, wild; assay: Test C preemergence; assay type: in vivo, Avena fatua; settings: for Oat, Wild plant response rating: preemergence; for Plant response rating, Oat, Wild: Preemergence
In short: as §1

[25] = system: wheat; assay: Test C postemergence; assay type: in vivo, Triticum aestivum; settings: 10 days
In short: as §1

[26] = system: ryegrass, Italian; assay: Test C postemergence; assay type: in vivo, Lolium multiflorum; settings: 10 days
In short: as §1

[27] = system: rice; assay: Test D flooded paddy test; assay type: in vivo, Oryza sativa; settings: 250 g ai/ha, applied to paddy water, visual rating after 13 to 14 days, scale 0 to 100 (0 no effect, 100 complete control)
In short: as §2

[28] = system: soybean; assay: Test C postemergence; assay type: in vivo, Glycine max; settings: 10 days
In short: as §1

[29] = 500 g ai/ha, postemergence, 0 to 100 scale (0 no effect, 100 complete control)
[30] = Postemergence, 125 g ai/ha, 0 to 100 scale (0 no effect, 100 complete control)
[31] = 500 g ai/ha, 0 to 100 scale (0 no effect, 100 complete control)
[32] = 125 g ai/ha, 0 to 100 scale, 0 no effect, 100 complete control
[33] = 125 g ai/ha, postemergence, 0 to 100 scale, 0 no effect, 100 complete control
[34] = Postemergence, 500 g ai/ha, visual 0 to 100 scale (0 no effect, 100 complete control)
[35] = 500 g ai/ha, visual rating after 10 days, 0 to 100 scale (0 no effect, 100 complete control)
[36] = Test C, 125 g ai/ha, 0 to 100 scale (0 no effect, 100 complete control)

## CCOC[C@H]1CN(C(=O)c2cc(-n3cnc(C(C)C)n3)ccc2C)c2cccc(Cl)c2O1 [Compound 340, [(2R)-8-chloro-2-(ethoxymethyl)-2,3-dihydro-1,4-benzoxazin-4-yl]-[5-(3-isopropyl-1,2,4-triazol-1-yl)-2-methyl-phenyl]methanone]
[1]; [29]
  Plant response rating, Foxtail, Green: 70
[1]; [30]
  Plant response rating, Foxtail, Green: 30
[2]; [31]
  Kochia plant response rating: 100
[2]; [32]
  Plant response rating, Kochia: 90
[3]; Alopecurus myosuroides, post-emergence, 240 h, 500 g ai/ha, postemergence, 0 to 100 scale (0 no effect, 100 complete control), read-out: Plant response rating, Blackgrass
  pest or weed control at 500 g/ha: 60%
[3]; Alopecurus myosuroides, post-emergence, 240 h, Postemergence, 125 g ai/ha, 0 to 100 scale (0 no effect, 100 complete control), read-out: Plant response rating, Blackgrass
  pest or weed control at 125 g/ha: 20%
[4]; [31]
  Corn plant response rating: 40
[4]; [32]
  Plant response rating, Corn: 20
[5]; [31]
  Barnyardgrass plant response rating: 100
[5]; [32]
  Plant response rating, Barnyardgrass: 90
[6]; [29]
  Plant response rating, Kochia: 90
[6]; [30]
  Plant response rating, Kochia: 90
[7]; [29]
  Plant response rating, Ragweed: 80
[7]; [30]
  Plant response rating, Ragweed: 70
[8]; [31]
  Wheat plant response rating: 80
[8]; [32]
  Plant response rating, Wheat: 50
[9]
  Plant response rating, Barnyardgrass (Flood): 0
[10]; [29]
  Plant response rating, Barnyardgrass: 60
[10]; [30]
  Plant response rating, Barnyardgrass: 50
[11]; [29]
  Plant response rating, Galium: 100
[11]; [30]
  Plant response rating, Galium: 90
[12]; [31]
  Foxtail, Green plant response rating: 100
[12]; [32]
  Plant response rating, Foxtail, Green: 100
[13]; [29]
  Plant response rating, Pigweed, Palmer: 100
[13]; [30]
  Plant response rating, Pigweed, Palmer: 80
[14]
  Plant response rating, Ducksalad (Flood): 75
[15]; [31]
  Blackgrass plant response rating: 90
[15]; [32]
  Plant response rating, Blackgrass: 50
[16]
  Plant response rating, Sedge, Umbrella (Flood): 60
[17]; [29]
  Plant response rating, Horseweed: 60
[17]; [30]
  Plant response rating, Horseweed: 30
[18]; [31]
  Ragweed plant response rating: 100
[18]; [32]
  Plant response rating, Ragweed: 80
[19]; Zea mays, post-emergence, 240 h, 500 g ai/ha, postemergence, 0 to 100 scale (0 no effect, 100 complete control)
  Corn plant response rating (crop injury, 0 = no effect, 100 = complete kill) at 500 g/ha: 60%
[19]; Zea mays, post-emergence, 240 h, Postemergence, 125 g ai/ha, 0 to 100 scale (0 no effect, 100 complete control)
  Corn plant response rating (crop injury, 0 = no effect, 100 = complete kill) at 125 g/ha: 60%
[20]; [29]
  Plant response rating, Oat, Wild: 20
[20]; [30]
  Plant response rating, Oat, Wild: 10
[21]; [31]
  Pigweed, Palmer plant response rating: 100
[21]; [32]
  Plant response rating, Pigweed, Palmer: 100
[22]; [31]
  Soybean plant response rating: 100
[22]; [32]
  Plant response rating, Soybean: 30
[23]; [31]
  Ryegrass, Italian plant response rating: 100
[23]; [32]
  Plant response rating, Ryegrass, Italian: 90
[24]; [31]
  Oat, Wild plant response rating: 80
[24]; [32]
  Plant response rating, Oat, Wild: 70
[25]; [29]
  Plant response rating, Wheat: 30
[25]; [30]
  Plant response rating, Wheat: 10
[26]; [29]
  Plant response rating, Ryegrass, Italian: 80
[26]; [30]
  Plant response rating, Ryegrass, Italian: 60
[27]
  Plant response rating, Rice (Flood): 0
[28]; [29]
  Plant response rating, Soybean: 100
[28]; [30]
  Plant response rating, Soybean: 100

## CC(C)c1ncn(-c2ccc(SC(F)(F)F)c(C(=O)N3C[C@H](C)Oc4c(Cl)cccc43)c2)n1 [Compound 249]
[1]; [33]
  Plant response rating, Foxtail, Green: 30
[1]; [34]
  Plant response rating, Foxtail, Green: 30
[2]; [35]
  Plant response rating, Kochia: 0
[2]; [36]
  Kochia plant response rating: 0
[3]; [33]
  Plant response rating, Blackgrass: 0
[3]; [34]
  Plant response rating, Blackgrass: 0
[4]; [35]
  Plant response rating, Corn: 0
[4]; [36]
  Corn plant response rating: 0
[5]; [35]
  Plant response rating, Barnyardgrass: 20
[5]; [36]
  Barnyardgrass plant response rating: 20
[6]; [33]
  Plant response rating, Kochia: 50
[6]; [34]
  Plant response rating, Kochia: 80
[7]; [33]
  Plant response rating, Ragweed: 0
[7]; [34]
  Plant response rating, Ragweed: 0
[8]; [35]
  Plant response rating, Wheat: 0
[8]; [36]
  Wheat plant response rating: 0
[9]
  Plant response rating, Barnyardgrass (Flood): 0
[10]; [33]
  Plant response rating, Barnyardgrass: 10
[10]; [34]
  Plant response rating, Barnyardgrass: 10
[11]; [33]
  Plant response rating, Galium: 90
[12]; [35]
  Plant response rating, Foxtail, Green: 90
[12]; [36]
  Foxtail, Green plant response rating: 90
[13]; [33]
  Plant response rating, Pigweed, Palmer: 40
[13]; [34]
  Plant response rating, Pigweed, Palmer: 70
[14]
  Plant response rating, Ducksalad (Flood): 0
[15]; [35]
  Plant response rating, Blackgrass: 60
[15]; [36]
  Blackgrass plant response rating: 20
[16]
  Plant response rating, Sedge, Umbrella (Flood): 0
[17]; [33]
  Plant response rating, Horseweed: 0
[17]; [34]
  Plant response rating, Horseweed: 0
[18]; [35]
  Plant response rating, Ragweed: 0
[18]; [36]
  Ragweed plant response rating: 0
[19]; [33]
  Plant response rating, Corn: 0
[19]; [34]
  Plant response rating, Corn: 10
[20]; [33]
  Plant response rating, Oat, Wild: 0
[20]; [34]
  Plant response rating, Oat, Wild: 0
[21]; [35]
  Plant response rating, Pigweed, Palmer: 30
[21]; [36]
  Pigweed, Palmer plant response rating: 30
[22]; [35]
  Plant response rating, Soybean: 20
[22]; [36]
  Soybean plant response rating: 0
[23]; [35]
  Plant response rating, Ryegrass, Italian: 60
[23]; [36]
  Ryegrass, Italian plant response rating: 40
[24]; [35]
  Plant response rating, Oat, Wild: 0
[24]; [36]
  Oat, Wild plant response rating: 0
[25]; [33]
  Plant response rating, Wheat: 10
[25]; [34]
  Plant response rating, Wheat: 10
[26]; [33]
  Plant response rating, Ryegrass, Italian: 0
[26]; [34]
  Plant response rating, Ryegrass, Italian: 0
[27]
  Plant response rating, Rice (Flood): 0
[28]; [33]
  Plant response rating, Soybean: 100
[28]; [34]
  Plant response rating, Soybean: 100
